Measured values published in article PMC7598995, “HT-SuMD: making molecular dynamics simulations suitable for fragment-based screening. A comparative study with NMR” (Journal of Enzyme Inhibition and Medicinal Chemistry, 2020).

Target: T1, Bcl-XL (Homo sapiens, UniProt Q07817)
T1 construct: gene BCL2L1; human Bcl-XL lacking the C-terminus domain (Δ209-233), 6His-tagged
Assay: NMR: […] SOFAST-HMQC titration, plus STD and WaterLOGSY
Type: binding

T1 sequence (Q07817 1-208): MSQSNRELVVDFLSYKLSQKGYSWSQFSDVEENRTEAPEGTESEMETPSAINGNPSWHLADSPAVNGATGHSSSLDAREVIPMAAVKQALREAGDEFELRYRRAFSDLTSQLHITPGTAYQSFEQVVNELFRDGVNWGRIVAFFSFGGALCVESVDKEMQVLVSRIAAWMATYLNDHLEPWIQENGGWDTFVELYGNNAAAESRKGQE

Oc1ccccc1Cc1ccccc1 [compound 222, fragment 222]
Kd: 1000 ± 400 µM
